From patent publication US11051515B2, “3-acyl-benzamides and their use as herbicides” (Bayer Aktiengesellschaft, priority 2017, dated 2021)

Key:
[1] = system: CYPES; experiment: Post-emergence action against CYPES; format: in vivo, Cyperus esculentus; conditions: post-emergence, dosage 80 g/ha, visual assessment about 3 weeks after treatment vs untreated controls
Summary of the method: (§1)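 Weeds grown in sandy loam in greenhouse, treated at one-leaf stage (2–3 weeks after sowing) with WP or EC formulations sprayed as aqueous suspension/emulsion at 600 to […] water with 0.2% wetting agent. Visual rating after about 3 weeks versus untreated controls, as % herbicidal action (100% = plants dead, 0% = like control).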

[2] = system: ABUTH; experiment: Pre-emergence action against ABUTH; format: in vivo, Abutilon theophrasti; conditions: pre-emergence, dosage 320 g/ha, scored visually after 3 weeks vs untreated controls
Summary of the method: (§2)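 Seeds sown in sandy loam in wood-fiber pots and covered with soil. Greenhouse growth; visual damage scored after 3 weeks versus untreated controls (100% = dead, 0% = like control).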

[3] = system: AMARE; experiment: Post-emergence action against AMARE; format: in vivo, Amaranthus retroflexus; conditions: post-emergence, dosage 80 g/ha, visual assessment about 3 weeks after treatment vs untreated controls
Summary of the method: as §1

[4] = system: VERPE; experiment: Post-emergence action against VERPE; format: in vivo, Veronica persica; conditions: dosage 80 g/ha
Summary of the method: as §1

[5] = system: POLCO; experiment: Post-emergence action against POLCO; format: in vivo, Polygonum convolvulus; conditions: post-emergence, dosage 80 g/ha
Summary of the method: as §1

[6] = system: HORMU; experiment: Pre-emergence action against HORMU; format: in vivo, Hordeum murinum; conditions: Dosage 320 g/ha
Text: (§3) Seeds of monocotyledonous and dicotyledonous weed plants and crop plants are laid out in sandy loam soil in wood-fiber pots and covered with soil. The compounds of the invention, formulated in the form of wettable powders (WP) or as emulsion concentrates (EC), are then applied to the surface of the covering soil in the form of an aqueous suspension or emulsion at a water application rate equating to […], with addition of 0.2% wetting agent. After the treatment, the pots are placed in a greenhouse and kept under good growth conditions for the trial plants. The damage to the test plants is scored visually after a test period of 3 weeks by comparison with untreated controls (herbicidal activity in percent (%): 100% activity=the plants have died, 0% activity=like control plants).

[7] = system: VIOTR; experiment: Post-emergence action against VIOTR; format: in vivo, Viola tricolor; conditions: post-emergence, dosage 80 g/ha
Summary of the method: as §1

[8] = system: MATIN; experiment: Pre-emergence action against MATIN; format: in vivo, Matricaria inodora; conditions: Dosage 320 g/ha, pre-emergence
Summary of the method: as §2

[9] = system: PHBPU; experiment: Post-emergence action against PHBPU; format: in vivo, Pharbitis purpurea; conditions: post-emergence, dosage 80 g/ha
Summary of the method: as §1

[10] = system: ALOMY; experiment: Pre-emergence action against ALOMY; format: in vivo, Alopecurus myosuroides; conditions: dosage 320 g/ha, pre-emergence, scored visually after 3 weeks vs untreated controls, 100% = plants have died, 0% = like control plants
Summary of the method: as §2

[11] = system: VERPE; experiment: Pre-emergence action against VERPE; format: in vivo, Veronica persica; conditions: Dosage 320 g/ha, pre-emergence
Summary of the method: as §2

[12] = system: ABUTH; experiment: Post-emergence action against ABUTH; format: in vivo, Abutilon theophrasti; conditions: post-emergence, dosage 80 g/ha, visual assessment about 3 weeks after treatment vs untreated controls
Summary of the method: as §1

[13] = system: PHBPU; experiment: Pre-emergence action against PHBPU; format: in vivo, Pharbitis purpurea; conditions: Dosage 320 g/ha, pre-emergence
Summary of the method: as §2

[14] = system: AMARE; experiment: Pre-emergence action against AMARE; format: in vivo, Amaranthus retroflexus; conditions: pre-emergence, dosage 320 g/ha, scored visually after 3 weeks vs untreated controls
Summary of the method: as §2

[15] = system: SETVI; experiment: Post-emergence action against SETVI; format: in vivo, Setaria viridis; conditions: post-emergence, dosage 80 g/ha, visual assessment about 3 weeks after treatment vs untreated controls
Summary of the method: as §1

[16] = system: MATIN; experiment: Post-emergence action against MATIN; format: in vivo, Matricaria inodora; conditions: post-emergence, dosage 80 g/ha, visual assessment about 3 weeks after treatment vs untreated controls
Summary of the method: as §1

[17] = system: STEME; experiment: Post-emergence action against STEME; format: in vivo, Stellaria media; conditions: post-emergence, dosage 80 g/ha
Summary of the method: as §1

[18] = system: SETVI; experiment: Pre-emergence action against SETVI; format: in vivo, Setaria viridis; conditions: pre-emergence, dosage 320 g/ha, scored visually after 3 weeks vs untreated controls
Summary of the method: as §2

[19] = system: ECHCG; experiment: Post-emergence action against ECHCG; format: in vivo, Echinochloa crus-galli; conditions: post-emergence, dosage 80 g/ha, visual assessment about 3 weeks after treatment vs untreated controls
Summary of the method: as §1

[20] = system: STEME; experiment: Pre-emergence action against STEME; format: in vivo, Stellaria media; conditions: Dosage 320 g/ha, pre-emergence
Summary of the method: as §2

[21] = system: ECHCG; experiment: Pre-emergence action against ECHCG; format: in vivo, Echinochloa crus-galli; conditions: pre-emergence, dosage 320 g/ha, scored visually after 3 weeks vs untreated controls
Summary of the method: as §2

[22] = system: POLCO; experiment: Pre-emergence action against POLCO; format: in vivo, Polygonum convolvulus; conditions: Dosage 320 g/ha, pre-emergence
Summary of the method: as §2

[23] = system: AVEFA; experiment: Pre-emergence action against AVEFA; format: in vivo, Avena fatua; conditions: dosage 320 g/ha, scored visually after 3 weeks vs untreated controls
Summary of the method: as §2

[24] = system: VIOTR; experiment: Pre-emergence action against VIOTR; format: in vivo, Viola tricolor; conditions: Dosage 320 g/ha, pre-emergence
Summary of the method: as §2

[25] = system: CYPES; experiment: Pre-emergence action against CYPES; format: in vivo, Cyperus esculentus; conditions: pre-emergence, dosage 320 g/ha, scored visually after 3 weeks vs untreated controls
Summary of the method: as §2

[26] = system: LOLRI; experiment: Pre-emergence action against LOLRI; format: in vivo, Lolium rigidum; conditions: dosage 320 g/ha, scored visually after 3 weeks vs untreated controls
Text: as §3

CCCn1nnnc1NC(=O)c1ccc(C(F)F)c(C(C)=O)c1SC [3-65]
Post-emergence action against CYPES (herbicidal action in percent) [1]: 80% | Pre-emergence action against ABUTH (herbicidal activity) [2]: 100% | Post-emergence action against AMARE (herbicidal action in percent) [3]: 90% | Post-emergence action against VERPE [4]: 80 | Post-emergence action against POLCO [5]: 80 | Pre-emergence action against HORMU [6]: 100% | Post-emergence action against VIOTR [7]: 100 | Pre-emergence action against MATIN [8]: 100% | Post-emergence action against PHBPU [9]: 90 | Pre-emergence action against ALOMY (herbicidal activity in percent) [10]: 80% | Pre-emergence action against VERPE [11]: 100% | Post-emergence action against ABUTH (herbicidal action in percent) [12]: 100% | Pre-emergence action against PHBPU [13]: 100% | Pre-emergence action against AMARE (herbicidal activity) [14]: 100% | Post-emergence action against SETVI (herbicidal action in percent) [15]: 100% | Post-emergence action against MATIN (herbicidal action in percent) [16]: 90% | Post-emergence action against STEME [17]: 100 | SETVI (Table B8, pre-emergence herbicidal activity) [18]: 100% | Post-emergence action against ECHCG (herbicidal action in percent) [19]: 90% | Pre-emergence action against STEME [20]: 100% | Pre-emergence action against ECHCG (herbicidal activity) [21]: 100% | Pre-emergence action against POLCO [22]: 100% | Pre-emergence action against AVEFA (herbicidal activity) [23]: 100% | Pre-emergence action against VIOTR [24]: 100%

CCCC(=O)c1c(C(F)(F)F)ccc(C(=O)Nc2nnnn2C)c1Cl [1-139]
pest or weed control at 320 g/ha ([2]; Abutilon theophrasti, 504 h, read-out: Pre-emergence action against ABUTH (herbicidal activity)): 100% | pest or weed control at 80 g/ha ([3]; Amaranthus retroflexus, 504 h, read-out: Post-emergence action against AMARE (herbicidal action in percent)): 100% | pest or weed control at 80 g/ha ([4]; Veronica persica, 504 h): 80% | pest or weed control at 320 g/ha ([6]; Hordeum murinum, 504 h): 90% | pest or weed control at 80 g/ha ([7]; Viola tricolor, 504 h): 100% | pest or weed control at 320 g/ha ([8]; Tripleurospermum inodorum, 504 h): 100% | pest or weed control at 80 g/ha ([9]; Ipomoea purpurea, 504 h): 100% | pest or weed control at 320 g/ha ([10]; Alopecurus myosuroides, 504 h, read-out: Pre-emergence action against ALOMY (herbicidal activity in percent)): 100% | pest or weed control at 320 g/ha ([11]; Veronica persica, 504 h): 100% | pest or weed control at 80 g/ha ([12]; Abutilon theophrasti, 504 h, read-out: Post-emergence action against ABUTH (herbicidal action in percent)): 90% | pest or weed control at 320 g/ha ([13]; Ipomoea purpurea, 504 h): 100% | pest or weed control at 320 g/ha ([14]; Amaranthus retroflexus, 504 h, read-out: Pre-emergence action against AMARE (herbicidal activity)): 100% | pest or weed control at 80 g/ha ([16]; Tripleurospermum inodorum, 504 h, read-out: Post-emergence action against MATIN (herbicidal action in percent)): 90% | pest or weed control at 320 g/ha ([25]; Cyperus esculentus, 504 h, read-out: Pre-emergence action against CYPES (herbicidal activity)): 90% | pest or weed control at 320 g/ha ([26]; Lolium rigidum, 504 h, read-out: Pre-emergence action against LOLRI (herbicidal activity)): 100% | pest or weed control at 80 g/ha ([17]; Stellaria media, 504 h): 100% | pest or weed control at 320 g/ha ([18]; Setaria viridis, 504 h, read-out: SETVI (Table B8, pre-emergence herbicidal activity)): 100% | pest or weed control at 80 g/ha ([19]; Echinochloa crus-galli, 504 h, read-out: Post-emergence action against ECHCG (herbicidal action in percent)): 90% | pest or weed control at 320 g/ha ([20]; Stellaria media, 504 h): 100% | pest or weed control at 320 g/ha ([21]; Echinochloa crus-galli, 504 h, read-out: Pre-emergence action against ECHCG (herbicidal activity)): 100% | pest or weed control at 320 g/ha ([23]; Avena fatua, 504 h, read-out: Pre-emergence action against AVEFA (herbicidal activity)): 100% | pest or weed control at 320 g/ha ([24]; Viola tricolor, 504 h): 100%

CCCC(=O)c1c(C(F)(F)F)ccc(C(=O)Nc2nnnn2CC)c1Cl [2-139]
Pre-emergence action against ABUTH (herbicidal activity) [2]: 100% | Post-emergence action against AMARE (herbicidal action in percent) [3]: 100% | Pre-emergence action against HORMU [6]: 80% | Post-emergence action against VIOTR [7]: 100 | Pre-emergence action against MATIN [8]: 100% | Post-emergence action against PHBPU [9]: 100 | Pre-emergence action against ALOMY (herbicidal activity in percent) [10]: 100% | Pre-emergence action against VERPE [11]: 100% | Post-emergence action against ABUTH (herbicidal action in percent) [12]: 90% | Pre-emergence action against PHBPU [13]: 100% | Pre-emergence action against AMARE (herbicidal activity) [14]: 100% | Post-emergence action against MATIN (herbicidal action in percent) [16]: 90% | Pre-emergence action against CYPES (herbicidal activity) [25]: 100% | Pre-emergence action against LOLRI (herbicidal activity) [26]: 100% | Post-emergence action against STEME [17]: 100 | SETVI (Table B8, pre-emergence herbicidal activity) [18]: 100% | Post-emergence action against ECHCG (herbicidal action in percent) [19]: 90% | Pre-emergence action against STEME [20]: 100% | Pre-emergence action against ECHCG (herbicidal activity) [21]: 100% | Pre-emergence action against AVEFA (herbicidal activity) [23]: 80% | Pre-emergence action against VIOTR [24]: 100%

CCn1nnnc1NC(=O)c1ccc(C(F)F)c(C(C)=O)c1SC [2-65]
Pre-emergence action against ABUTH (herbicidal activity) [2]: 100% | Post-emergence action against AMARE (herbicidal action in percent) [3]: 100% | Post-emergence action against VERPE [4]: 80 | Post-emergence action against POLCO [5]: 100 | Pre-emergence action against HORMU [6]: 80% | Post-emergence action against VIOTR [7]: 100 | Pre-emergence action against MATIN [8]: 90% | Post-emergence action against PHBPU [9]: 90 | Pre-emergence action against ALOMY (herbicidal activity in percent) [10]: 100% | Pre-emergence action against VERPE [11]: 100% | Post-emergence action against ABUTH (herbicidal action in percent) [12]: 100% | Pre-emergence action against PHBPU [13]: 100% | Pre-emergence action against AMARE (herbicidal activity) [14]: 100% | Post-emergence action against SETVI (herbicidal action in percent) [15]: 100% | Post-emergence action against MATIN (herbicidal action in percent) [16]: 100% | Pre-emergence action against CYPES (herbicidal activity) [25]: 90% | Post-emergence action against STEME [17]: 100 | SETVI (Table B8, pre-emergence herbicidal activity) [18]: 100% | Post-emergence action against ECHCG (herbicidal action in percent) [19]: 80% | Pre-emergence action against STEME [20]: 100% | Pre-emergence action against ECHCG (herbicidal activity) [21]: 100% | Pre-emergence action against POLCO [22]: 90% | Pre-emergence action against AVEFA (herbicidal activity) [23]: 100% | Pre-emergence action against VIOTR [24]: 100%
